The nature of data set [1]: Tissue distribution after single-gavage administration of IXA to mice. Format: in vivo, C57/BL6 mice. To be noted: for 8-PN accumulation, single-ingestion test (at 24 h) / AUC (0–48 h) 8-PN/IXA / C max 8-PN: mice; for 8-PN accumulation, single-ingestion test (at 24 h): single IXA 50 mg/kg BW; for 8-PN accumulation, single-ingestion test (at 24 h) / C max 8-PN: metabolite; for AUC (0–48 h) 8-PN/IXA / C max 8-PN: single oral IXA 50 mg/kg BW. As for the experimental part: (§1) Six‐week‐old male C57/BL6 mice (initial BW: 19–24 g; Japan SLC, Shizuoka, Japan) were housed in a room maintained at 23–26°C with a 12‐h light–dark cycle. During the 1‐week acclimatization period, they were allowed free access to a commercial diet (Oriental Yeast Co., Tokyo, Japan) and water. Two days before the experiment, they were fed AIN‐93M (Oriental Yeast Co.). Before drug administration, they were fasted for 20 h, but had free access to water. IXA dissolved in 3% hydroxypropyl‐β‐cyclodextrin and 5% ethanol (Fujifilm; Wako Pure Chemical Corp., Osaka, Japan) was named the injection solution and administered (50 mg/kg BW) to mice intragastrically using a gastric feeding tube (AS ONE, Osaka, Japan). Blood, brain, thymus, heart, lung, liver, spleen, pancreas, kidney, and gastrocnemius muscle were collected 0.5, 1, 2, 4, 8, 12, 24, and 48 h after administration. We also set up a control group, and mice in this group were sacrificed just before we started administering IXA at 0 h. At 4 h after administration, mice were allowed free access to AIN‐93 M. Plasma was isolated by centrifugation at 17 × 10^3 m/s^2 (5911, Kubota, Tokyo, Japan) for 5 min at 4°C. All tissues were dissected, weighed, and immediately frozen in liquid nitrogen. All samples were stored at −80°C until analysis.
(§2) Tissue sample deconjugation was performed as described in a previous report with slight modifications (Tanaka et al., [2022]). Tissues were homogenized in phosphate‐buffered saline (pH 7.4), which was nine times the tissue volume. The tissue homogenate was incubated in 50 mmol/L ascorbic acid (one‐fifth the volume of phosphate‐buffered saline) and 1.67 μkat/100 μL of β‐glucuronidase type H‐1 in 0.1 mol/L sodium acetate buffer (pH 4.7, nine times the volume of the sample) for 2 h at 37°C. Then, 2.4 nmol of QTM was added to samples as an internal standard. The supernatant was isolated by centrifugation at 17 × 10^3 m/s^2 (Kubota) for 5 min at 4°C. Then, methanol (Kanto Kagaku, 25183‐2B) was added to the pellets, and they were shaken for 1 min. The methanol layer and pellets were separated by centrifugation at 17 × 10^3 m/s^2 (Kubota, RY1071‐A000) for 5 min at 4°C. Methanol extraction was repeated three times. Finally, methanol extracts were mixed with the supernatant (the composition of the mixture was 30% methanol) and then applied to an Inert Sep C8 (200 mg/3 mL; GL Sciences, Tokyo, Japan; 5010‐61082) cartridge. The cartridge was preconditioned with 6 mL of 2% acetic acid in methanol, and then 9 mL of 2% acetic acid in water. The extracted tissue was passed through the cartridge, and it was washed with 5 mL of 2% acetic acid in 30% methanol aq. The flavonoids were eluted with 10 mL of 2% acetic acid in methanol.
(§3) The plasma and tissue extracts were evaporated using a Centrifugal Evaporator (EYERA, Tokyo, Japan, CVE‐3000). The samples were stored at −80°C until the next day. Then, the samples were dissolved in 120 μL of a mobile phase solution and divided into two test tubes. The first sample was injected into the HPLC with an ultraviolet detection system (Shimadzu, Kyoto, Japan).
(§4) IXA and 8‐PN concentrations were determined by their respective standard curves using an internal standard method. A Cadenza 3‐μm CD‐C18 HPLC column (CD005, 150 × 4.6 mm; Imtakt Corporation, Kyoto, Japan) was equipped for HPLC (λ = 295 nm). The mobile phase consisted of methanol:water:acetic acid (60:35:5, v/v/v). The flow rate was set at 1.0 mL/min. […] Because clear peaks over 4.5 pmol/sample were detected for IXA and 8‐PN by visual evaluation, we determined that these concentrations were the peak limit of detections for each flavonoid. We applied calibration curves in the IXA/QTM concentration ratio range of 0.007–35.1 (R ^2 = .9955).

Data set [2] can be described thus: Plasma pharmacokinetics after single-gavage administration of IXA to mice. Format: in vivo, C57/BL6 mice. The following applies: single oral IXA 50 mg/kg BW, data not shown. As for the experimental part:
as §1
(§5) Plasma samples were deconjugated by β‐glucuronidase type H‐1 (which has β‐glucuronidase and sulphatase activity; Sigma, St. Louis, MO, USA; G0751) to convert aglycon from conjugated metabolites of IXA and 8‐PN, as described in a previous report (Y. Tanaka et al., [2022]). Briefly, 100 μL of plasma was mixed with 900 μL of 0.1 mol/L sodium acetate buffer (pH 4.7), 200 μL of 50 mmol/L ascorbic acid, and 1 mL of 1.67 μkat/100 μL of β‐glucuronidase type H‐1, and then incubated for 30 min at 37°C. Then, 2.4 nmol of QTM was added to the samples as the internal standard. The liberated aglycone was extracted using ethyl acetate (Kanto Kagaku, 14,029‐2B).
as §3, §4

Data set [3] can be described thus: Liver accumulation after intragastric IXA administration at various concentrations to rats for 28 days. To be noted: rat liver. Format: in vivo, Sprague–Dawley rats. As for the experimental part: Six‐week‐old female Sprague–Dawley rats (Charles River Laboratories Japan, Inc., Yokohama, Japan) were housed in a room maintained at 20–26°C on a 12‐h light–dark cycle. The initial BW of rats was 176–179 g. They were allowed free access to a commercial diet (CRF‐1) and water during the experiment. IXA dissolved in injection solution was administered intragastrically to rats (112.5, 225, 360, 450, and 1500 mg/kg BW) daily for 28 days using a gastric feeding tube. We also set up a control group to which the injection solution was administered. The final BW of rats was 231–241 g. The liver was collected the day after the last administration. The rats were fasted for 16–24 h before they were euthanized, but they had free access to water. Liver samples were stored at −80°C until analysis.
as §2
The plasma and tissue extracts were evaporated using a Centrifugal Evaporator (EYERA, Tokyo, Japan, CVE‐3000). The samples were stored at −80°C until the next day. Then, the samples were dissolved in 120 μL of a mobile phase solution and divided into two test tubes. […]
IXA and 8‐PN concentrations were determined by their respective standard curves using an internal standard method. […] Because clear peaks over 4.5 pmol/sample were detected for IXA and 8‐PN by visual evaluation, we determined that these concentrations were the peak limit of detections for each flavonoid. […]

The nature of data set [4]: Tissue and plasma accumulation after daily gavage administration of IXA to mice for 14 days. Format: in vivo, C57/BL6 mice. The following applies: IXA 30 mg/kg BW daily 14 days, metabolite, 24 h after final administration. As for the experimental part:
Animal species, age, sex, initial BW, feeding conditions, and dosage method were the same as those for the single gavage administration test, but the dose was 30 mg/kg BW. […] Daily gavage administration without fasting was performed at 12:00 PM for 14 days. The final BW was 21–26 g. Blood, brain, thymus, heart, lung, liver, spleen, kidney, and gastrocnemius muscle were collected 24 h after the final administration. The sample collection method was the same as that for the single gavage administration test.
as §5, §2, §3, §4

From PMC10916623, “Tissue distribution and pharmacokinetics of isoxanthohumol from hops in rodents” (Food Science & Nutrition, 2023) come the findings set out here.

Where “and” joins values, the source holds several entries; their conditions need not be identical. Identical values can stand only once.

In the case of “4,5,7‐trihydroxy‐8‐prenylflavanone [8‐PN]”, the “8-PN accumulation, single-ingestion test (at 24 h)” value in data set [1] (liver) is 4.6 ± 1.8 nmol/g of tissue; in data set [1] (lung), 1.8 ± 0.9 nmol/g of tissue. Besides, the “AUC (0–48 h) 8-PN/IXA” value in data set [1] (liver) is 26%; in data set [1] (lung), 109% and 109.3%; in data set [1] (pancreas), 1%. Further, the “C max 8-PN” value in data set [1] (liver, measured at 24 h) is on record as 4.6 ± 1.8 nmol/g of tissue; in data set [1] (lung, measured at 2 h), 4.5 ± 2.5 nmol/g of tissue; in data set [1] (pancreas, measured at 1 h), 0.6 ± 0.5 nmol/g of tissue. Also, in data set [2], the “8-PN in the plasma during the experiment” value is “not observed”. Moreover, the “amount of 8-PN relative to that of IXA (times higher)” value in data set [3] (IXA 112.5 mg/kg, 28 days) is recorded as “approximately two”. Moreover, in data set [3] (IXA 1500 mg/kg, 28 days), the “8-PN levels compared with those of IXA” value is listed as “approximately 7.4%”. The “correlation coefficient between dose-concentration and accumulation” value in data set [3] (IXA 112.5–1500 mg/kg BW once a day for 28 days, Pearson) was “−.255”. Also, the “8-PN accumulation, 14-day repeated-ingestion test” value in data set [4] (brain) is given as 0.8 ± 0.7 nmol/g of tissue; in data set [4] (heart), “not detected”; in data set [4] (liver) it was 2.1 ± 0.4 nmol/g of tissue; in data set [4] (lung), 3.9 ± 3.5 nmol/g of tissue; in data set [4] (muscle), 0.1 ± 0.0 nmol/g of tissue; in data set [4] (plasma), “not detected”. Besides, the entries for the “8-PN accumulation, 14-day repeated-ingestion test” value in data set [4] (spleen) and in data set [4] (thymus) were 0.6 ± 0.6 nmol/g of tissue and 0.6 ± 0.5 nmol/g of tissue, respectively.

For `CC(C)=CCc1c(O)cc2c(c1O)C(=O)C[C@@H](c1ccc(O)cc1)O2` [6‐PN, 6‐prenylnaringenin], in data set [1] (mouse, in vivo), the “presence of 6-PN in the samples analyzed in this study” value is on record as “not detected”.
